Test results as given in PMC10997755, “Discovery of a small-molecule inhibitor that traps Polθ on DNA and synergizes with PARP inhibitors” (Nature Communications, 2024).
Values joined by “and” are separate entries in the source; they are usually repeats but may differ in a detail not shown here. Equal values may be shown once.

Key:
Polθ-pol = target: T1, Polθ-pol (Homo sapiens, UniProt O75417); experiment: Relative rate of Polθ-pol dAMP addition; assay type: biochemical
T1 construct: purified recombinant human Polθ-pol (comprising amino acid residues 1792–2590); made in house
T1 sequence (O75417 1792-2590): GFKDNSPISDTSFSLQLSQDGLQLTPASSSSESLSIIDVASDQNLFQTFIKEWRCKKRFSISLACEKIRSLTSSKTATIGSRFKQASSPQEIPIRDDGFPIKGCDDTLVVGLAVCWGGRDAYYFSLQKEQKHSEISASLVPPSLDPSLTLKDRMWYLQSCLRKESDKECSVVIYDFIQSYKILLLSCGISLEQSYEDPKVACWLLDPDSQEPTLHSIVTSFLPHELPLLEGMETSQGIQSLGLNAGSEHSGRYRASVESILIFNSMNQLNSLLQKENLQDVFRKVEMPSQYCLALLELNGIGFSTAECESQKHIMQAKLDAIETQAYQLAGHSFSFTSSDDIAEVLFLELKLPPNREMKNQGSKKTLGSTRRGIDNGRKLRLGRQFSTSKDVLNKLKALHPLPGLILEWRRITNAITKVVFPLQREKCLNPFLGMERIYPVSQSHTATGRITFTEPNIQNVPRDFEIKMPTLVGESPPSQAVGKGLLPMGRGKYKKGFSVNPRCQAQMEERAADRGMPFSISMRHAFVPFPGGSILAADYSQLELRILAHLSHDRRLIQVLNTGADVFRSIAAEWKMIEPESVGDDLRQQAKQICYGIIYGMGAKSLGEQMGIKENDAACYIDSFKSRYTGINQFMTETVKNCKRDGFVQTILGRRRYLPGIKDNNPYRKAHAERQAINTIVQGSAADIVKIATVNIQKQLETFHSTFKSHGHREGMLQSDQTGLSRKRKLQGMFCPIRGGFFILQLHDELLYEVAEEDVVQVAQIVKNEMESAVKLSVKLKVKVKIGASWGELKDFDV
Protocol: Relative rate of Polθ-pol dAMP addition. The relative rates of dAMP incorporation by Polq-pol in the presence of DMSO or MC160385 with various concentrations of dATP were measured using the following primer extension assay in vitro. 2 nM or Polθ-pol was incubated with 5’ ^32P-γ-ATP labeled 100 nM primer-template (RP469D/RP486) in 1X buffer (25 mM TrisHCl pH 7.8, 0.01% NP40, 10% glycerol, 1 mM DTT, 10 mM MgCl2, 0.1 mg/ml BSA) at room temp. 2.5% DMSO, 7.5 nM or 12 nM of MC160385 was added. Reactions were than initiated by the addition of 20, 50, 100, 200, or 300 μM dATP at room temp. Aliquots of the reactions were removed and terminated by the addition of 50 mM EDTA at 3, 3.5, 4 and 5 min after the reaction was initiated. Radio-labeled DNA was then resolved via denaturing 20% PAGE and visualized by Typhoon PhosphorImager (GE Amersham). Rates of dAMP incorporation were calculated from % extension of the prime-template which was determined using ImageJ software. Relative rate of ddCMP addition on DNA/DNA and DNA/RNA. 25 nM nucleic acid DNA/DNA or DNA/RNA primer-template (RP559/RP702 or RP559/RP702R) was mixed with 1X reaction buffer (20 mM TrisHCl pH 7.5, 0.01% NP-40, 0.5 mM DTT, 10% glycerol, 0.1 mg/ml BSA, 10 mM MgCl2) in the presence of 250 μM ddCTP at room temp. Next, 2 μM RTx-161 or 2.5% DMSO was added. Reactions were initiated by the addition of 10 nM Polθ-pol. Reaction aliquots were removed and terminated by the addition of 50 mM EDTA at the indicated time points. Radio-labeled DNA was then resolved via denaturing 20% PAGE and visualized by Typhoon PhosphorImager. Percent primer extension by single ddCMP addition at each time point was calculated from % extension of the prime-template which was determined using ImageJ software.

Polε = experiment: Primer extension by recombinant Pols (selectivity); assay type: biochemical
[1] = test system: Brca1^CC/CC;Polq^-/- cells; experiment: Clonogenic assay; assay type: cell-based, mouse; conditions: for survival relative to 0 uM / survival relative to 0 uM, mean of the four experiments: cc POLQ KO; for survival relative to 0 uM: experiments 2023-04-07 and 2023-04-13; for survival relative to 0 uM, mean of the four experiments: last block without head (mean of 4)
Protocol: Cells were plated on six or twelve or twenty-four well plates. In six well plate, […], BRCA1 -/-, […]; In twelve well plate, […], BRCA1 -/-, PALB2 mut and 400 cells/ well of wildtype pair was plated; In twenty-four well plate, […], BRCA1 -/-, PALB2 mut and 300 cells/ well of wildtype pair was plated. […] The medium was replaced every 2 days until the colonies were ready for staining in 10–12 days. For staining: Medium was removed from plates, and cells were rinsed with PBS. Fixation was carried out with—Water: Ethanol: Acetic acid (5:4:1) for 30 min followed by staining of colonies with 0.5% crystal violet in Water: Ethanol (3:2) for 2 h at room temperature. The plates were rinsed with water and left for drying overnight at room temperature. Colonies were then counted and IC50 was calculated using results from 3 or more independent experiments. Response curves are shown as mean colony formation +/- S.E.M.

With `CN(C(=O)Oc1ccc(C(F)(F)F)cc1C(F)(F)F)c1ccc(F)cc1` [MC160385] the “effect on Km for dATP” value (Polθ-pol) was “slightly reducing”, the “effect on Vmax of dAMP incorporation” value (Polθ-pol) was “significantly reduces” and the “relative velocity of dAMP incorporation (avg)” value (from here on “relative velocity”) (Polθ-pol; 7.5 nM MC160385, dATP 20 uM) was 2.69 and 2.7. For the same compound, the “relative velocity” value (Polθ-pol; 7.5 nM MC160385, dATP 50 uM) was 5.36 and 5.4, the “relative velocity” value (Polθ-pol; 7.5 nM MC160385, dATP 100 uM) was 6.32 and 6.3 and the “relative velocity” value (Polθ-pol; 7.5 nM MC160385, dATP 200 uM) was 6.56 and 6.6. For the same compound, the “relative velocity” value (Polθ-pol; 7.5 nM MC160385, dATP 300 uM) was 6.245 and 6.2, the “relative velocity” value (Polθ-pol; 12 nM, dATP 20 uM) was 2.3 and the “relative velocity” value (Polθ-pol; 12 nM, dATP 50 uM) was 4.065. The “relative velocity” value (Polθ-pol; 12 nM, dATP 50 uM, listed as MC160386) was 4.1, the “relative velocity” value (Polθ-pol; 12 nM, dATP 100 uM) was 4.94 and the “relative velocity” value (Polθ-pol; 12 nM, dATP 100 uM, listed as MC160386) was 4.9. The “relative velocity” value (Polθ-pol; 12 nM, dATP 200 uM) was 4.6 and the “relative velocity” value (Polθ-pol; 12 nM, dATP 300 uM) was 4.95.
In the case of `CN(C(=O)Oc1c(N2CCN(CCO)C2=O)cc(C(F)(F)F)cc1C(F)(F)F)c1ccc(F)cc1` [RTx-161], the “% Full Extension” value (Polε; Pol Epsilon) is reported as 91.14%, the “% Inhibition Compared to Control” value (Polε; Pol Epsilon) is reported as -0.19% and the “% Relative Maximum Extension” value (Polε; Pol Epsilon) is reported as 100.19%. For the same compound, the “inhibition of primer extension” value (Polε; selectivity panel, Pol named in Supplementary Fig. 1h) was “no inhibition”, the “survival relative to 0 uM” value ([1]; 150 cells/well, RTx-161 1.25 uM) was 105.26% and 120.00% and the “survival relative to 0 uM” value ([1]; 150 cells/well, RTx-161 2.5 uM) was 73.68% and 115.00%. The “survival relative to 0 uM” value ([1]; 150 cells/well, RTx-161 5 uM) was 89.47% and 105.00%, the “survival relative to 0 uM” value ([1]; 150 cells/well, RTx-161 10 uM) was 94.74% and 95.00% and the “survival relative to 0 uM” value ([1]; 150 cells/well, RTx-161 20 uM) was 73.68% and 90.00%. The “survival relative to 0 uM” value ([1]; 300 cells/well, RTx-161 1.25 uM) was 106.67% and 94.44%, the “survival relative to 0 uM” value ([1]; 300 cells/well, RTx-161 2.5 uM) was 83.33% and the “survival relative to 0 uM” value ([1]; 300 cells/well, RTx-161 5 uM) was 83.33% and 86.11%. For the same compound, the “survival relative to 0 uM” value ([1]; 300 cells/well, RTx-161 10 uM) was 86.67% and 94.44%, the “survival relative to 0 uM” value ([1]; 300 cells/well, RTx-161 20 uM) was 80.00% and 83.33% and the “survival relative to 0 uM, mean of the four experiments” value (“survival relative to 0 uM, mean” for short) ([1]; RTx-161 1.25 uM) was 106.59%. For the same compound, the “survival relative to 0 uM, mean” value ([1]; RTx-161 2.5 uM) was 88.84%, the “survival relative to 0 uM, mean” value ([1]; RTx-161 5 uM) was 90.98% and the “survival relative to 0 uM, mean” value ([1]; RTx-161 10 uM) was 92.71%. For the same compound, the “survival relative to 0 uM, mean” value ([1]; RTx-161 20 uM) was 81.75% and the “sensitivity of Brca1^CC/CC;Polq^-/- cells” value ([1]; compared to Brca1^CC/CC cells) was “resistant”.
